Assay results as given in patent US6737383B1, “Herbicidal oxadiazolidines” (priority 1999, dated 2004).

How the values were obtained:
[1] = tested on: rice; assay: Test B flood test rice; format: in vivo, Oryza sativa
Summary of the method: (§1)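 Read-out is a visual response score from 0 (no effect) to 10 (complete control), assigned by comparison with untreated controls. Treatment was applied at the 2-leaf stage, and plants stayed in the greenhouse for twelve to sixteen days before scoring.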

[2] = tested on: duck salad; assay: Test B flood test duck salad; format: in vivo, Heteranthera limosa
Summary of the method: as §1

[3] = tested on: bamyardgrass; assay: Test B flood test barnyardgrass; format: in vivo, Echinochloa crus-galli
Summary of the method: as §1

[4] = tested on: pigweed; assay: Test B pre/postemergence pigweed; format: in vivo, Amaranthus retroflexus
Summary of the method: (§2)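 Response is a visual 0-to-10 score relative to untreated plants, where 0 means no effect and 10 means complete control, taken twelve to sixteen days after application. Treatments went onto soil at planting and onto foliage of 1- to 4-leaf plants, using a surfactant-containing non-phytotoxic solvent.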

[5] = tested on: bedstraw; assay: Test B pre/postemergence bedstraw; format: in vivo, Galium aparine
Summary of the method: as §2

[6] = tested on: corn; assay: Test B pre/postemergence corn; format: in vivo, Zea mays
Summary of the method: as §2

[7] = tested on: wild oat; assay: Test B pre/postemergence wild oat; format: in vivo, Avena fatua
Summary of the method: as §2

[8] = tested on: velvetleaf; assay: Test B pre/postemergence velvetleaf; format: in vivo, Abutilon theophrasti
Summary of the method: as §2

[9] = tested on: soybean; assay: Test B pre/postemergence soybean; format: in vivo, Glycine max
Summary of the method: as §2

[10] = tested on: rape; assay: Test B pre/postemergence rape; format: in vivo, Brassica napus
Summary of the method: as §2

[11] = tested on: crabgrass; assay: Test B pre/postemergence crabgrass; format: in vivo, Digitaria sanguinalis
Summary of the method: as §2

[12] = tested on: cocklebur; assay: Test B pre/postemergence cocklebur; format: in vivo, Xanthium strumarium
Summary of the method: as §2

[13] = tested on: surinam grass; assay: Test B pre/postemergence surinam grass; format: in vivo, Brachiaria decumbens
Summary of the method: as §2

[14] = tested on: morningglory; assay: Test B pre/postemergence morningglory; format: in vivo, Ipomoea hederacea
Summary of the method: as §2

[15] = tested on: smallflower flatsedge; assay: Test B flood test smallflower flatsedge; format: in vivo, Cyperus difformis
Summary of the method: as §1

[16] = tested on: sugar beet; assay: Test B pre/postemergence sugar beet; format: in vivo, Beta vulgaris
Summary of the method: as §2

[17] = Rate 62 g/ha, headed Pre-emergence (flood test species), scale 0 to 10 (0 no effect, 10 complete control)
[18] = Rate 125 g/ha, Pre-emergence, flood test species, scale 0 to 10 where 0 is no effect and 10 is complete control
[19] = Rate 250 g/ha, Pre-emergence, flood-test species, scale 0 to 10, 0 is no effect, 10 is complete control
[20] = Rate 500 g/ha, Pre-emergence, flood test species, scale 0 to 10 (0 no effect, 10 complete control)
[21] = Preemergence, Rate 62 g/ha, scale of 0 to 10 where 0 is no effect and 10 is complete control
[22] = Preemergence, Rate 250 g/ha, scale of 0 to 10 where 0 is no effect and 10 is complete control
[23] = Preemergence, Rate 500 g/ha, scale of 0 to 10 where 0 is no effect and 10 is complete control
[24] = Rate 62 g/ha, Postemergence, scale of 0 to 10 where 0 is no effect and 10 is complete control
[25] = Rate 125 g/ha, Postemergence, scale 0 to 10
[26] = Rate 125 g/ha, Preemergence, scale of 0 to 10 where 0 is no effect and 10 is complete control
[27] = Rate 500 g/ha, Postemergence, scale 0 to 10

SMILES: CC(C)N(C(=O)n1oc(=O)n(CC(=O)C(C)(C)C)c1=O)c1ccc(F)cc1 [Compound 216]
- Rice plant response rating [1, 17]: 0
- Rice plant response rating [1, 18]: 0
- Rice plant response rating [1, 19]: 0
- Rice plant response rating [1, 20]: 0
- Ducksalad plant response rating [2, 17]: 0
- Ducksalad plant response rating [2, 18]: 0
- Ducksalad plant response rating [2, 19]: 0
- Ducksalad plant response rating [2, 20]: 0
- Barnyardgrass plant response rating [3, 17]: 0
- Barnyardgrass plant response rating [3, 18]: 0
- Barnyardgrass plant response rating [3, 19]: 0
- Barnyardgrass plant response rating [3, 20]: 0
- Redroot pigweed plant response rating [4, 21]: 0
- Redroot pigweed plant response rating [4, 22]: 2
- Plant response rating, Redroot pigweed [4, 23]: 8
- Redroot pigweed plant response rating [4, 24]: 0
- Redroot pigweed plant response rating [4, 25]: 0
- Redroot pigweed plant response rating [4, 26]: 0
- Plant response rating (0 to 10; 0 is no effect, 10 is complete control), Redroot pigweed ([4]; Rate 250 g/ha, Postemergence): 2
- Redroot pigweed plant response rating [4, 27]: 3
- Bedstraw plant response rating [5, 21]: 0
- Bedstraw plant response rating [5, 22]: 0
- Plant response rating, Bedstraw [5, 23]: 0
- Bedstraw plant response rating [5, 24]: 0
- Bedstraw plant response rating [5, 25]: 0
- Bedstraw plant response rating [5, 26]: 0
- Plant response rating (0 to 10; 0 is no effect, 10 is complete control), Bedstraw ([5]; Rate 250 g/ha, Postemergence): 2
- Corn plant response rating [6, 21]: 0
- Corn plant response rating [6, 22]: 0
- Plant response rating, Corn [6, 23]: 0
- Corn plant response rating [6, 24]: 0
- Corn plant response rating [6, 25]: 0
- Corn plant response rating [6, 26]: 0
- Plant response rating (0 to 10; 0 is no effect, 10 is complete control), Corn ([6]; Rate 250 g/ha, Postemergence): 2
- Corn plant response rating [6, 27]: 3
- Wild oats plant response rating [7, 21]: 0
- Wild oats plant response rating [7, 22]: 0
- Plant response rating, Wild oats [7, 23]: 0
- Wild oats plant response rating [7, 24]: 0
- Wild oats plant response rating [7, 25]: 0
- Wild oats plant response rating [7, 26]: 0
- Plant response rating (0 to 10; 0 is no effect, 10 is complete control), Wild oats ([7]; Rate 250 g/ha, Postemergence): 0
- Velvetleaf plant response rating [8, 21]: 0
- Velvetleaf plant response rating [8, 22]: 0
- Plant response rating, Velvetleaf [8, 23]: 0
- Velvetleaf plant response rating [8, 24]: 0
- Velvetleaf plant response rating [8, 25]: 0
- Velvetleaf plant response rating [8, 26]: 0
- Plant response rating (0 to 10; 0 is no effect, 10 is complete control), Velvetleaf ([8]; Rate 250 g/ha, Postemergence): 0
- Soybean plant response rating [9, 21]: 0
- Soybean plant response rating [9, 22]: 0
- Plant response rating, Soybean [9, 23]: 0
- Soybean plant response rating [9, 24]: 1
- Soybean plant response rating [9, 25]: 1
- Soybean plant response rating [9, 26]: 0
- Plant response rating (0 to 10; 0 is no effect, 10 is complete control), Soybean ([9]; Rate 250 g/ha, Postemergence): 1
- Soybean plant response rating [9, 27]: 2
- Rape plant response rating [10, 21]: 0
- Rape plant response rating [10, 22]: 0
- Plant response rating, Rape [10, 23]: 0
- Rape plant response rating [10, 24]: 0
- Rape plant response rating [10, 25]: 0
- Rape plant response rating [10, 26]: 0
- Plant response rating (0 to 10; 0 is no effect, 10 is complete control), Rape ([10]; Rate 250 g/ha, Postemergence): 0
- Rape plant response rating [10, 27]: 3
- Crabgrass plant response rating [11, 21]: 0
- Crabgrass plant response rating [11, 22]: 8
- Plant response rating, Crabgrass [11, 23]: 8
- Crabgrass plant response rating [11, 24]: 0
- Crabgrass plant response rating [11, 25]: 2
- Crabgrass plant response rating [11, 26]: 3
- Plant response rating (0 to 10; 0 is no effect, 10 is complete control), Crabgrass ([11]; Rate 250 g/ha, Postemergence): 4
- Crabgrass plant response rating [11, 27]: 7
- Cocklebur plant response rating [12, 21]: 0
- Cocklebur plant response rating [12, 22]: 0
- Plant response rating, Cocklebur [12, 23]: 0
- Cocklebur plant response rating [12, 24]: 0
- Cocklebur plant response rating [12, 25]: 0
- Cocklebur plant response rating [12, 26]: 0
- Plant response rating (0 to 10; 0 is no effect, 10 is complete control), Cocklebur ([12]; Rate 250 g/ha, Postemergence): 0
- Cocklebur plant response rating [12, 27]: 3
- B. signalgrass plant response rating [13, 21]: 0
- B. signalgrass plant response rating ([13]; Preemergence, Rate 250 g/ha, scale 0 to 10, 0 is no effect, 10 is complete control): 4
- Plant response rating, B. signalgrass [13, 23]: 4
- B. signalgrass plant response rating [13, 24]: 0
- B. signalgrass plant response rating ([13]; Rate 125 g/ha, Postemergence, scale 0 (no effect) to 10 (complete control)): 2
- B. signalgrass plant response rating [13, 26]: 1
- Plant response rating (0 to 10; 0 is no effect, 10 is complete control), B. signalgrass ([13]; Rate 250 g/ha, Postemergence): 5
- B. signalgrass plant response rating ([13]; Rate 500 g/ha, Postemergence, scale 0 to 10, 0 no effect, 10 complete control): 8
- Morningglory plant response rating [14, 21]: 0
- Morningglory plant response rating [14, 22]: 0
- Plant response rating, Morningglory [14, 23]: 0
- Morningglory plant response rating [14, 24]: 3
- Morningglory plant response rating [14, 25]: 4
- Morningglory plant response rating [14, 26]: 0
- Plant response rating (0 to 10; 0 is no effect, 10 is complete control), Morningglory ([14]; Rate 250 g/ha, Postemergence): 7
- Morningglory plant response rating [14, 27]: 10
- S. Flatsedge plant response rating [15, 17]: 0
- S. Flatsedge plant response rating [15, 18]: 0
- S. Flatsedge plant response rating [15, 19]: 0
- S. Flatsedge plant response rating [15, 20]: 0
- Sugarbeets plant response rating [16, 21]: 0
- Sugarbeets plant response rating [16, 22]: 0
- Plant response rating, Sugarbeets [16, 23]: 0
- Sugarbeets plant response rating [16, 24]: 0
- Sugarbeets plant response rating [16, 25]: 0
- Sugarbeets plant response rating [16, 26]: 0
- Plant response rating (0 to 10; 0 is no effect, 10 is complete control), Sugarbeets ([16]; Rate 250 g/ha, Postemergence): 0
- Sugarbeets plant response rating [16, 27]: 2
